In US20200368247A1, “CENICRIVIROC FOR THE TREATMENT OF FIBROSIS” (Tobira Therapeutics, Inc., priority 2014, published 2020):

Experiment: Study 202 treatment-emergent laboratory abnormalities (DAIDS grade)
Format: in vivo, human
Excerpt: The 12th subject (Subject 42001) had 2 consecutive CPK elevations (Grade 3 followed by Grade 4) that returned to normal values while continuing treatment at a subsequent visit. None of the CPK elevations were associated with clinical symptoms; no subjects discontinued due to CPK elevations and there were no differences in AEs related to musculoskeletal disorders between the CVC and EFV arms.
The number of subjects with graded treatment-emergent laboratory abnormalities in selected liver parameters of interest is shown in Table 34. No Grade 4 ALT or AST elevations were observed. Except for one Grade 3 AST elevation, all ALT and AST elevations were Grade 1 or Grade 2. […] All abnormalities in bilirubin were Grade 1 or Grade 2. […]

[1] = All CVC (N = 115), EFV (N = 28)
[2] = All CVC (N = 115), EFV (N = 28), through Week 48

In the case of O=C1Nc2ccc(Cl)cc2[C@@](C#CC2CC2)(C(F)(F)F)O1 [EFV, efavirenz, reference compound], the “ALT abnormality, worst Grade 1” value [1] is reported as 2 (7%) n (%), the “ALT abnormality, worst Grade 2” value [1] is reported as 0 n (%) and the “ALT abnormality, worst Grade 3” value [1] is reported as 0 n (%). The “ALT abnormality, worst Grade 4” value [1] was 0 n (%), the “AST abnormality, worst Grade 1” value [1] was 3 (11%) n (%) and the “AST abnormality, worst Grade 2” value [1] was 0 n (%). The “AST abnormality, worst Grade 3” value [1] was 0 n (%), the “AST abnormality, worst Grade 4” value [1] was 0 n (%) and the “Alanine aminotransferase (ALT) abnormality, any worst grade” value [1] was 2 (7%) n (%). For the same compound, the “Aspartate aminotransferase (AST) abnormality, any worst grade” value [1] was 3 (11%) n (%), the “Bilirubin abnormality, any worst grade” value [1] was 1 (4%) n (%) and the “Bilirubin abnormality, worst Grade 1” value [1] was 1 (4%) n (%). For the same compound, the “Bilirubin abnormality, worst Grade 2” value [1] was 0 n (%), the “Bilirubin abnormality, worst Grade 3” value [1] was 0 n (%) and the “Bilirubin abnormality, worst Grade 4” value [1] was 0 n (%). The “AST increased, Grade 3” value [2] was 0 n (%), the “AST increased, Grade 4” value [2] was 0 n (%) and the “Any Grade 3 laboratory abnormality” value [2] was 3 (11%) n (%). For the same compound, the “Any Grade 3 or Grade 4 laboratory abnormality” value [2] was 4 (14%) n (%), the “Any Grade 4 laboratory abnormality” value [2] was 1 (4%) n (%) and the “Aspartate aminotransferase (AST) increased (Grade 3 or 4)” value [2] was 0 n (%). For the same compound, the “CPK increased, Grade 3” value [2] was 2 (7%) n (%), the “CPK increased, Grade 4” value [2] was 0 n (%) and the “Creatine phosphokinase (CPK) increased (Grade 3 or 4)” value [2] was 2 (7%) n (%). The “Fibrinogen decreased (Grade 3 or 4)” value [2] was 0 n (%), the “Fibrinogen decreased, Grade 3” value [2] was 0 n (%) and the “Fibrinogen decreased, Grade 4” value [2] was 0 n (%). The “Hemoglobin decreased (Grade 3 or 4)” value [2] was 0 n (%), the “Hemoglobin decreased, Grade 3” value [2] was 0 n (%) and the “Hemoglobin decreased, Grade 4” value [2] was 0 n (%). The “Neutrophils decreased (Grade 3 or 4)” value [2] was 1 (4%) n (%), the “Neutrophils decreased, Grade 3” value [2] was 0 n (%) and the “Neutrophils decreased, Grade 4” value [2] was 1 (4%) n (%). For the same compound, the “Phosphate decreased (Grade 3 or 4)” value [2] was 1 (4%) n (%), the “Phosphate decreased, Grade 3” value [2] was 1 (4%) n (%) and the “Phosphate decreased, Grade 4” value [2] was 0 n (%). For the same compound, the “Prothrombin time/international normalized ratio increased (Grade 3 or 4)” value [2] was 0 n (%), the “Prothrombin time/international normalized ratio increased, Grade 3” value [2] was 0 n (%) and the “Prothrombin time/international normalized ratio increased, Grade 4” value [2] was 0 n (%). For the same compound, the “Any graded (Grade 1-4) laboratory abnormality, %” value (EFV) was 89%, the “Worst Grade 1 laboratory abnormality, %” value (EFV) was 46% and the “Worst Grade 2 laboratory abnormality, %” value (EFV) was 29%. The “Worst Grade 3 laboratory abnormality, %” value (EFV) was 11% and the “Worst Grade 4 laboratory abnormality, %” value (EFV) was 4%.
